Consider nine molecules from patent publication US20070191400A1, “Pharmaceutical compositions comprising anti-inflammatory quinazolinecarboxamide derivatives” (Rimonyx Pharmaceuticals Ltd., priority 2004, published 2007).

Test [1] addresses T1, Recombinant Human L-Selectin/IgG binding to heparin (Homo sapiens, UniProt P14151).
T1 construct: purchased Research and Development Systems 728-LS
T1 sequence (P14151 39-332 limits assumed): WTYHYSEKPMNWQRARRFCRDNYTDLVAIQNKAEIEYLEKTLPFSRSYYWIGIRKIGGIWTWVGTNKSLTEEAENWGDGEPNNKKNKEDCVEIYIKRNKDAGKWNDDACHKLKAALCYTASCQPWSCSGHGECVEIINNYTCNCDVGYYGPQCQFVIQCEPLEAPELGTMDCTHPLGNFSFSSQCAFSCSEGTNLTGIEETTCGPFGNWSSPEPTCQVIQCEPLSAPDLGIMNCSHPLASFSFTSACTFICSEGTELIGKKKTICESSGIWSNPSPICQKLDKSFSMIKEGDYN
The test is described as follows: Inhibition of L-selectin binding to heparin (ELISA, immobilized heparin-BSA). The note with it: for IC50: compounds tested at 0.01 to 300 μM, representative results, read-out: IC-50, inhibition of L-Selectin binding to heparin; for inhibition at 30 µM: read-out: % Inhibition at 30 microMolar conc. (L-Selectin binding to heparin). As for the experimental part:
An in vitro assay was used to assess the ability of test compounds according to formula I to inhibit the interactions of L-selectin with HS-GAGs. The assay was suitable for determining the concentration required for 50% inhibition (IC-50) for each specific compound. In the assay, the GAG used was heparin. Thus, porcine intestinal mucosa heparin conjugated to Bovine Serum Albumin (Heparin-BSA; Sigma Cat. No. H0403) at 5 mg/ml in Phosphate-Buffered Saline (PBS; pH 6.5) was added to a 96-well polystyrene ELISA plate (NUNC Cat. No. 442404; 0.1 ml per well) and incubated over night at 4° C. Following the incubation, the plate was washed thoroughly, by immersion, with de-ionized water and PBS (pH 6.5). The ELISA plate was then blocked with BSA (ICN Cat. No.160069, 3%, 200 μl per well) for 1 hour at room temperature. Following blocking, the plate was washed with de-ionized water, and then with PBS (pH 6.5) containing Tween 20 (Sigma Cat. No. P-1379, 0.05%). Compounds were synthesized or purchased from suppliers of chemical compounds such as ChemDiv Labs (San Diego, Calif.), dissolved in DMSO, diluted in PBS and added to the wells at various concentrations in the range of 0.01 to 300 μM. Recombinant Human L-Selectin/IgG (Research and Development Systems Cat. No.728-LS) dissolved in PBS supplemented with BSA (0.1%) and calcium chloride (1 mM) was added to the ELISA plate (100 μl per well) and incubated for 60 minutes at room temperature with shaking. Following incubation, the plate was washed with de-ionized water and three times with PBS (pH 6.5) containing Tween 20. Anti-Human IgG Peroxidase Conjugate (1:5000; Sigma Product No. A8667) diluted in PBS supplemented with BSA (0.1%) and calcium chloride (1 mM) was added to the ELISA plate (100 μl per well) and incubated for 30 minutes at room temperature with shaking. The plate was then washed with de-ionized water and three times with PBS (pH 6.5) containing Tween 20. The peroxidase substrate chromogen tetramethyl benzidine (TMB; Dako Cat. No. S1599) was added (100 μl per well) to the ELISA plate and incubated at room temperature. After 15 minutes, ELISA Stop Solution (hydrochloric acid 1N, sulfuric acid 3N) was added (200 μl per well) to stop the peroxidase catalyzed colorimetric reaction. The Optical Density (OD) of the samples was measured at 450 nm using an ELISA plate reader (Dynatech MR5000). Data were analyzed with Graphpad Prism software and IC-50 values were established.

Test [2] has as its target T2, CMV envelope glycoprotein B binding to immobilized heparin (Human cytomegalovirus, UniProt P06473).
T2 construct: purchased Research Diagnostics, INC; RDI-RCMVAG-B
The test is described as follows: Inhibition of CMV envelope glycoprotein B binding to immobilized heparin (ELISA). The note with it: for inhibition at 30 µM: read-out: % Inhibition at 30 microMolar conc. (CMV envelope glycoprotein B binding to immobilized heparin); for inhibition at 100 µM: read-out: % Inhibition at 100 microMolar conc. (CMV envelope glycoprotein B binding to immobilized heparin). As to the method:
Porcine intestinal mucosa heparin conjugated to Bovine Serum Albumin (Heparin-BSA; Sigma Cat. No. H0403) at 5 mg/ml in Phosphate-Buffered Saline (PBS; pH 6.5) was added to a 96-well polystyrene ELISA plate (NUNC Cat. No. 442404; 0.1 ml per well) and incubated over night at 4° C. Following the incubation, the plate was washed consecutively, by immersion, with de-ionized water and PBS (pH 6.5). The ELISA plate was then blocked with BSA (ICN Cat. No. 160069, 3%, 200 μl per well) for 1 hour at room temperature. Following blocking, the plate was washed with de-ionized water, and then with PBS (pH 6.5) plus Tween 20 (0.05%). CMV envelope glycoprotein B (Research Diagnostics, INC. Cat. No. RDI-RCMVAG-B) dissolved in PBS (supplemented with BSA (0.1%)) was added to the ELISA plate (100 μl per well) and incubated for 60 minutes at room temperature with shaking. Following incubation, the plate was washed with de-ionized water and with PBS (pH 6.5) plus Tween. Mouse anti-human Cytomegalovirus gB antibody (Research Diagnostics, INC. Cat. No. RDI-CMVG Babm) diluted in PBS (supplemented with BSA(0.1%)), 1:2000, was added to the ELISA plate (100 μl per well) and incubated for 90 minutes at room temperature with shaking. Following the incubation, the plate was washed with de-ionized water and PBS (pH 6.5) plus Tween. Goat anti-Mouse IgG (H&L) Peroxidase Conjugated antibody (Chemicon International, Inc. Cat. No. AP124P) diluted in PBS (supplemented with BSA (0.1%)), 1:1000, was added to the ELISA plate (100 μl per well) and incubated for 30 minutes at room temperature with shaking. Following the incubation, the plate was washed with de-ionized water and with PBS (pH 6.5) plus Tween. The peroxidase substrate chromogen, TMB (Dako Cat. No. S1599) was added (100 μl per well) to the ELISA plate and incubated at room temperature. After 15 minutes, ELISA Stop Solution (hydrochloric acid iN, sulfuric acid 3N) was added (200 μl per well) to stop the peroxidase catalyzed colorimetric reaction. The Optical Density (OD) of the samples was measured at 450 nm using an ELISA plate reader (Dynatech MR5000).
The CMV envelope glycoprotein B (GBVP) binding assay described above was used to screen a synthetic chemical compound collection on 96-well plates. The compound collection was purchased from ChemDiv Inc. (San Diego, Calif.). […] Individual compounds at a final concentration of 30 or 100 μM were co-incubated with the GBVP on plates containing immobilized heparin and, following washing, bound GBVP was detected with anti-CMV GBVP antibody and secondary antibody conjugated to horseradish peroxidase, as described above. Following color development, the % inhibition compared to control (no compound) for every compound was determined. Compounds that inhibited at least 30% of the signal were scored as hits.

Test [3] concerns BALB/c mice. The test is described as follows: Carrageenan-induced paw edema. It is filed as in vivo, mouse. As to the method: Acute edema was induced in the left hind paw of BALB/c mice (12 mice/group) by injecting 0.02 ml of freshly prepared solution of 2% carrageenan (Sigma) after 60 min of test compound administration (Torres, S. R. et al., European Journal of Pharmacology 408: 199-211, 2000). […], which served as a control. Carrageenan was injected under the plantar region of […] and the paw thickness was measured at 2,4 and 24 hours after carrageenan challenge using a Mitutoyo engineer's micrometer expressed as the difference between right and left pad as mean ±SEM.
In general terms: The carrageenan paw model is a standard test of acute inflammation.

Test [4] relates to BALB/c mice. The test is described as follows: Delayed-type hypersensitivity (DTH), oxazolone mouse ear-swelling test. Format: in vivo. Conditions: 25 mg/kg per os, 1 hr prior to challenge; 24 hours after challenge. As for the experimental part: BALB/c mice (Velaz, Prague, Czech Republic; 8 weeks old; 15 animals per group) were sensitized by topical application of a 2% oxazolone (4-ethoxymethylene -2-phenyl-2-oxazoline-5-one; Sigma, St Louis, Mo.) solution in acetone/olive oil (4:1 vol/vol) to shaved abdomen (50 μl) and to each paw (5 μl) (Lange-Asschenfeldt B. et al., Blood 99:538-545, 2002). Five days after sensitization, right ears were challenged by topical application of 10 μl of a 1% oxazolone solution, whereas left ears were treated with vehicle alone. Compounds were administered 1 hr prior to challenge. The extent of inflammation was measured 24 hours after challenge, using the mouse ear-swelling test. Animals were numbered (tail marking) and weighed and the thickness of both ears was recorded with a constant-loading dial micrometer (Mitutoyo, Tokyo). The unpaired Student t-test was used for statistical analyses.

The test system of test [5] is BALB/c mice. The experiment in a line: Thioglycollate-induced leukocyte and neutrophil infiltration into mouse peritoneum. The note with it: 10 mg/kg i.p. It is filed as in vivo. As to the method:
BALB/c mice (Velaz, Prague; 6 weeks old, ˜20 g in weight, 15 mice/group) received intraperitoneal injection of an inhibitor compound in 0.2 ml DMSO/Tween/sterile saline 1 hour before administration of thioglycollate (Sigma). Control groups received vehicle and sham controls received no thioglycollate. Mice were injected intraperitoneally with 1 ml of 3% thioglycollate broth (Xie, X. et al., J. Biol. Chem., 275, 34818-34825, 2000). Mice were sacrificed after 3 hours, and the peritoneal cavities were lavaged with 5 ml of ice-cold saline containing 2 mM EDTA to prevent clotting. After red blood cell lysis, leukocytes were counted in a hemocytometer. Neutrophils were counted after staining with Türck's reagent (Merck, Darmstadt, Germany). Data was expressed as mean ±SEM, and statistical analysis was performed by Student t test. A value of p<0.05 was taken to denote statistical significance.

T2 sequence (P06473 32-906): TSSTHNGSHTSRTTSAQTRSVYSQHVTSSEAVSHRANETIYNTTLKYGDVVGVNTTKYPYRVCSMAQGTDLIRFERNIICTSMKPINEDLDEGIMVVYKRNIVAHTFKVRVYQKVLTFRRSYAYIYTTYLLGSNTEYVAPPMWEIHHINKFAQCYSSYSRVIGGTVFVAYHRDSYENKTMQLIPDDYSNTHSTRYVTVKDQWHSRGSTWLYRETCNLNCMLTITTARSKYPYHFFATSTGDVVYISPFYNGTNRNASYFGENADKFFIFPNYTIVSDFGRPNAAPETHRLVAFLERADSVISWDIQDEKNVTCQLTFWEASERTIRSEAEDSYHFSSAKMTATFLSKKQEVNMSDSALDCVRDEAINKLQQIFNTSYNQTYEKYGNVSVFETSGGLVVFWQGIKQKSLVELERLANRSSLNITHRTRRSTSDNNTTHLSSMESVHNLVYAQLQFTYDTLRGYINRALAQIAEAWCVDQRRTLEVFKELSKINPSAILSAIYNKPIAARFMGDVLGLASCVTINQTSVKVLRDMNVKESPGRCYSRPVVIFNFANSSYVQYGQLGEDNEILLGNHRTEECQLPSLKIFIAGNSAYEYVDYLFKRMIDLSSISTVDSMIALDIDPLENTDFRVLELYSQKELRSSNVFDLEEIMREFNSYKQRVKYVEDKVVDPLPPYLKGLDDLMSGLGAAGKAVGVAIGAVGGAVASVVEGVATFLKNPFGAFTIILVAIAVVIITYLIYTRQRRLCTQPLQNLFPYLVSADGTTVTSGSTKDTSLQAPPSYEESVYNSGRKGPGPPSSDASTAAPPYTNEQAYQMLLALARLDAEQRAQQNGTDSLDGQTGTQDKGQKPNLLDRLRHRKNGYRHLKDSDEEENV

The term inhibition denotes the share of the control response that was lost under treatment. For `O=C(NCCCN1CCOCC1)c1ccc2c(=O)n(-c3ccc(F)cc3)c(SCc3cccc(F)c3)nc2c1` [Compound 3, 2-[[(3-fluorophenyl)methyl]thio]-3-(4-fluorophenyl)-3,4-dihydro-4-oxo-N-[3-(4-morpholinyl)propyl]-7-quinazolinecarboxamide], in test [1], the IC50 amounted to 22 ± 1.2 µM. Also, in test [2], the inhibition at 30 µM stood at 85% and the inhibition at 100 µM is 88%.

For `O=C(CSc1nc2cc(C(=O)NCCCN3CCCCC3)ccc2c(=O)n1CC1CCCO1)c1ccccc1` (stereo not shown) [Compound 6, 2-[(2-oxo-2-phenylethyl)thio]-3-[(tetrahydro-2-furanyl)methyl]-3,4-dihydro-4-oxo -N-[3-(1-piperidinyl)propyl]-7-quinazolinecarboxamide], the inhibition at 30 µM in test [1] amounted to 30%.

For `CCCCCn1c(SCc2ccncc2)nc2cc(C(=O)N3CCN(C(=O)OCC)CC3)ccc2c1=O` [Compound 7, 4-[[3,4-dihydro-4-oxo-3-pentyl-2-[(4-pyridinylmethyl)thio]-7-quinazolinyl]carbonyl]-1-piperazinecarboxylic acid ethyl ester], the inhibition at 30 µM in test [1] is 83%.

`CC(C)Cn1c(S)nc2cc(C(=O)NCCCn3ccnc3)ccc2c1=O` [Compound 9, 2-mercapto-3-(2-methylpropyl-3)-3,4-dihydro-4-oxo-N-[3-(1N-imidazol-1-yl)propyl]-7-quinazolinecarboxamide]: in test [1], the IC50 came out at 21 ± 1.6 µM. The “Inhibition of paw edema (difference in paw thickness)” value in the test with BALB/c mice [3] (50 mg/kg oral, measured after 24 hours) is recorded as “inhibited paw edema”.

In the case of `Cc1ccc(CSc2nc3cc(C(=O)NCCCN4CCOCC4)ccc3c(=O)n2-c2ccc(F)cc2)cc1` [Compound 2, 2-[[(4-methylphenyl)methyl]thio]-3-(4-fluorophenyl)-3,4-dihydro-4-oxo-N-[3-(4-morpholinyl)propyl]-7-quinazolinecarboxamide], in test [1], the IC50 was determined as 24 ± 1.2 µM. The “Inhibition of DTH (difference in ear thickness)” value in the test on BALB/c mice [4] is recorded as “inhibited DTH”. The inhibition at 100 µM in test [2] came out at 86%.

As a reminder, the % Inhibition is how much of the control response was suppressed. Take “2-[[2-[[(3-chlorophenyl)methyl]thio]-3-pentyl-3,4-dihydro-4-oxo-N-(4-methylpiperazin -7-quinazolinecarboxamide [Compound 8]”: the “% Inhibition at 30 microMolar conc. (L-Selectin binding to heparin)” value in test [1] (30 microMolar) turned out to be 59%.

Turning to `O=C(NCCCN1CCOCC1)c1ccc2c(=O)n(-c3ccc(F)cc3)c(SCc3ccc(Cl)cc3)nc2c1` [Compound 1, 2-[[(4-chlorophenyl)methyl]thio]-3-(4-fluorophenyl)-3,4-dihydro-4-oxo-N-[3-(4-morpholinyl)propyl]-7-quinazolinecarboxamide], the IC50 in test [1] was 7 ± 1 µM. Besides, in the test on BALB/c mice [5] (1 hour before thioglycollate, 3 hours), the “Leukocyte migration into the peritoneal cavity” value is “inhibited efficiently”. In addition, in the test on BALB/c mice [5] (3 hours after thioglycollate), the “Neutrophil accumulation in the peritoneal cavity” value was 48 % of control value. Moreover, the inhibition at 30 µM in test [2] worked out at 33%. Moreover, the “Inhibition of paw edema (difference in paw thickness)” value in the test on BALB/c mice [3] (1 mg/kg oral, 24 hours after induction) was “inhibited paw edema”.

As for `COCCNC(=O)c1ccc2c(=O)n(Cc3ccco3)c(SCc3cc(=O)n4ccccc4n3)nc2c1` [Compound 5, 2-[[(4-oxo-4H-pyrido [1,2-a]pyrimidin-2-yl)methyl]thio]-3-(2-furanylmethyl) -3,4-dihydro-4-oxo-N-(2-methoxyethyl)-7-quinazolinecarboxamide], the inhibition at 30 µM in test [1] is 50%. Further, the inhibition at 100 µM in test [1] (read-out: % Inhibition at 100 microMolar conc. (L-Selectin binding to heparin)) amounted to 52%.

Regarding `CN1CCN(C(=O)c2ccc3c(=O)n(-c4ccccc4)c(SCC(=O)C(C)(C)C)nc3c2)CC1` [Compound 10], the IC50 in test [1] was 22 ± 1.5 µM.
